Source: patent US20250359576A1, “THEANINE-CONTAINING COMPOSITION” (TAIYO KAGAKU Co., Ltd., priority 2024, published 2025)

Assays:
panelists [1] = assay: Test Example 4: three-point discrimination sensory evaluation of organic nitrogen compound alone without theanine; type: in vivo; conditions: compound alone in deionized water without theanine; 5 ppm test solution; eight panelists; binomial test, p<0.10
Experimental: Organic nitrogen compound B was added to deionized water (i.e. not containing theanine) to prepare solutions containing 0 (control), 5, 50, and 100 ppm of organic nitrogen compound B.
In other words, […] of organic nitrogen compound B was dissolved in 1000 mL of deionized water (control) to make a 100 ppm solution. 150 mL of deionized water was added to 150 mL of the 100 ppm organic nitrogen compound B solution to make a 50 ppm organic nitrogen compound B solution.
20 mL of the 50 ppm organic nitrogen compound B solution was mixed with 180 mL of deionized water to make a 5 ppm organic nitrogen compound B solution.
A three-point discrimination sensory evaluation was conducted by eight panelists. Bitterness was used as the evaluation category. […] The panelists were asked to select solution(s) that they felt was (were) bitter. Analysis was performed using a binomial test. In the statistical analysis, a significance level of 10% (p<0.10) was used as the threshold for statistical significance.

panelists [2] = assay: Test Example 3: sensory evaluation of unpleasant taste (off-flavor) at high concentrations, upper limit; type: in vivo; conditions: six panelists
Experimental: Solutions containing theanine (Taiyo Kagaku Co., Ltd.: Suntheanine (registered trademark) U001) were prepared to contain 0 (control), 100, 500, 1000, 5000, and 10000 ppm of organic nitrogen compound A or C.
More specifically, 1996 mL of deionized water was added to 4 g of theanine, to prepare the theanine control solution (2 mg/mL theanine solution). 10000 ppm organic nitrogen compound solutions were prepared by adding […] of theanine control solution to 10 g of each organic nitrogen compound A and C.
150 mL of theanine control solution was added to 150 mL of each of the 10000 ppm organic nitrogen compound solutions to prepare 5000 ppm organic nitrogen compound solutions.
180 mL of theanine control solution was added to 20 mL of each of 10000 ppm organic nitrogen compound solutions to prepare 1000 ppm organic nitrogen compound solutions.
180 mL of theanine control solution was added to 20 mL of each of the 5000 ppm organic nitrogen compound solutions to prepare 500 ppm organic nitrogen compound solutions.
180 mL of theanine control solution was added to 20 mL of each of the 1000 ppm organic nitrogen compound solutions to prepare 100 ppm organic nitrogen compound solutions.
Similar solutions were also prepared for organic nitrogen compound C.
A sensory (taste) evaluation was conducted by six panelists. The evaluation category was unpleasant taste, which was considered to be an off-flavor.

SMILES	bitterness, three-point discrimination vs deionized water (panelists [1])	panelists who noticed an unpleasant taste (panelists [2]; 100-500 ppm in 2 mg/mL theanine solution)	panelists who noticed an unpleasant taste (panelists [2]; 1000-5000 ppm in 2 mg/mL theanine solution)	panelists who noticed an unpleasant taste (panelists [2]; 10000 ppm in 2 mg/mL theanine solution)
CCNC=O [organic nitrogen compound B, ethylformamide]	no significant difference	–	–	–
CC(N)=O [organic nitrogen compound C, acetamide]	–	one of six panelists	two of six panelists	all panelists
